“And” between values parts separate entries of the source, which are not always exact repeats. Identical values can stand only once.
Experiments:
Experiment in all cases: Broth microdilution MIC, Example 7 (NCL812 and analogues)
[1] = system: Escherichia coli; assay type: cell-based; details: 24 hours
[2] = system: VRE; assay type: cell-based, Enterococcus spp.; details: for activity against VRE among analogues: MIC testing, two VRE strains
Protocol: (§1) Minimum inhibitory concentrations (μg/ml) were determined using the broth microdilution method recommended by the Clinical and Laboratory Standards Institute (CLSI). MIC breakpoints were determined by visual assessment and then confirmed using an ELISA plate reader, measuring absorbance levels at 600 nm. Bacterial growth (turbidity) in the wells with antimicrobial was compared with the amount of growth (turbidity) in the growth-control well (containing no antimicrobial). All isolates were tested in duplicate, if there was a difference of greater than one two-fold dilution in the results, the test was repeated a third time. The purity of the isolates was closely monitored during testing by subculturing the prepared bacterial inoculum onto SBA (sheep blood agar). […] The MIC50, MIC20 and MIC range (minimum and maximum) were calculated for each of the bacterial groups.
(§2) MICs were determined against two MRSA strains, two VRE strains and one strain each of E. coli and Pseudomonas aeruginosa.

[3] = system: Pseudomonas aeruginosa; assay type: cell-based; details: 24 hours
[4] = system: MRSA; assay type: cell-based, Staphylococcus aureus; details: for activity against MRSA among analogues: MIC testing, two MRSA strains
Protocol: as §1, §2

[5] = E. coli, duplicate lines per compound
[6] = VRE 1, 24 hours, duplicate lines per compound
[7] = VRE 2, 24 hours, duplicate lines per compound
[8] = P. aeruginosa, duplicate lines per compound
[9] = MRSA 1, 24 hours, duplicate lines per compound
[10] = MRSA 2, 24 hours, duplicate lines per compound
[11] = isolate VRE 1, 24 hours, 1st and 2nd replicate rows
[12] = isolate VRE 2, 24 hours, 1st and 2nd replicate rows
[13] = isolate MRSA 1, 24 hours, 1st and 2nd replicate rows
[14] = isolate MRSA 2, 24 hours, 1st and 2nd replicate rows

| MIC (μg/ml) at 24 hours, E. coli [1, 5] [µg/mL] | MIC (μg/ml) at 24 hours, VRE 1 [2, 6] [µg/mL] | MIC (μg/ml) at 24 hours, VRE 2 [2, 7] [µg/mL] | MIC (μg/ml) at 24 hours, P. aeruginosa [3, 8] [µg/mL] | MIC (μg/ml) at 24 hours, MRSA 1 [4, 9] [µg/mL] | MIC (μg/ml) at 24 hours, MRSA 2 [4, 10] [µg/mL] | MIC (μg/ml) at 24 hours, E. coli ([1]; 1st and 2nd replicate rows) | MIC (μg/ml) at 24 hours, VRE 1 [2, 11] [µg/mL] | MIC (μg/ml) at 24 hours, VRE 2 [2, 12] [µg/mL] | MIC (μg/ml) at 24 hours, P. aeruginosa ([3]; 1st and 2nd replicate rows) [µg/mL] | MIC (μg/ml) at 24 hours, MRSA 1 [4, 13] [µg/mL] | MIC (μg/ml) at 24 hours, MRSA 2 [4, 14] [µg/mL] | Structure (SMILES) | further results |
| --- | --- | --- | --- | --- | --- | --- | --- | --- | --- | --- | --- | --- | --- |
| >128 | >128 | >128 | >128 | >128 | >128 |  |  |  |  |  |  | COc1cc(C=NNC(=N)NN=Cc2cc(O)c(O)c(OC)c2)cc(O)c1O.Cl [NCL106] |  |
|  |  |  |  |  |  | >128 µg/mL and >126 µg/mL | >128 | >128 | >128 | >128 | >128 | O=C(N/N=C/c1ccc(Cl)cc1)N/N=C/c1ccc(Cl)cc1 [NCL001] |  |
|  |  |  |  |  |  | >128 µg/mL | >128 | >128 | >128 | >128 | >128 | NC(=O)N/N=C/c1cccc(F)c1 [NCL057] |  |
| >128 | >128 | >128 | >128 | >128 | >128 |  |  |  |  |  |  | Cc1cccc(C=NNC(=N)NN=Cc2cccc(C)c2O)c1O.Cl [NCL 152] |  |
|  |  |  |  |  |  | >128 µg/mL | >128 | >128 | >128 | >128 | >128 | C/C(=N\NC(=N)N/N=C/c1ccc(C(F)(F)F)cc1)c1ccc(Cl)cc1.Cl [NCL068] |  |
| >128 | >128 | >128 | >128 | >128 | >128 |  |  |  |  |  |  | Cl.N=C(NN=Cc1ccoc1)NN=Cc1ccoc1 [NCL095] |  |
|  |  |  |  |  |  | >128 µg/mL | >128 | >128 | >128 | >128 | >128 | Cl.N=C(N)NN=Cc1cccc(F)c1 [NCL017] |  |
|  |  |  |  |  |  | >128 µg/mL | >128 | >128 | >128 | >128 | >128 | NC(=O)N/N=C/c1ccccc1F [NCL048] |  |
| >128 | >128 | >128 | >128 | >128 | >128 |  |  |  |  |  |  | Cl.N=C(NN=Cc1cc(Br)co1)NN=Cc1cc(Br)co1 [NCL 133] |  |
| >128 | 64 | >128 | >128 | 64 | >128 |  |  |  |  |  |  | Cl.N=C(NN=Cc1ccc(O)c(O)c1O)NN=Cc1ccc(O)c(O)c1O [NCL105] | activity against VRE among analogues [2]: greatest activity |
| >128 | >128 | >128 | >128 | >128 | >128 |  |  |  |  |  |  | Cl.N=C(N/N=C/c1ccc(Br)cc1)N/N=C/c1ccc(Br)cc1 [NCL 134] |  |
|  |  |  |  |  |  | >128 µg/mL | >128 | >128 | >128 | >128 | >128 | NC(=O)N/N=C/c1ccccc1C(F)(F)F [NCL060] |  |
|  |  |  |  |  |  |  |  |  |  |  |  | CC(C)(C)c1ccc(/C=N/Nc2cc(N/N=C/c3ccc(C(C)(C)C)cc3)nc(N)n2)cc1.Cl.Cl [NCL198] | MIC (μg/ml) at 24 hours, E. coli ([1]; E. coli): >128 µg/mL; MIC (μg/ml) at 24 hours, VRE 1 ([2]; VRE 1, 24 hours): >128 µg/mL; MIC (μg/ml) at 24 hours, VRE 2 ([2]; VRE 2, 24 hours): >128 µg/mL; MIC (μg/ml) at 24 hours, P. aeruginosa ([3]; P. aeruginosa): >128 µg/mL; MIC (μg/ml) at 24 hours, MRSA 1 ([4]; MRSA 1, 24 hours): >128 µg/mL; MIC (μg/ml) at 24 hours, MRSA 2 ([4]; MRSA 2, 24 hours): >128 µg/mL |
| >128 | >128 | >128 | >128 | >128 | >128 |  |  |  |  |  |  | Cl.N=C(NN=Cc1c(O)ccc2ccccc12)NN=Cc1c(O)ccc2ccccc12 [NCL 124] |  |
| >128 | 128 | >128 | >128 | 64 | 64 |  |  |  |  |  |  | Cl.N=C(NN=Cc1cc(O)c(O)cc1O)NN=Cc1cc(O)c(O)cc1O [NCL104] | activity against MRSA among analogues [4]: greatest activity |
|  |  |  |  |  |  |  |  |  |  |  |  | COc1ccc(/C=N/Nc2cc(N/N=C/c3ccc(OC)cc3)nc(N)n2)cc1 [NCL230] | MIC (μg/ml) at 24 hours, E. coli ([1]; E. coli): >128 µg/mL; MIC (μg/ml) at 24 hours, VRE 1 ([2]; VRE 1, 24 hours): >128 µg/mL; MIC (μg/ml) at 24 hours, VRE 2 ([2]; VRE 2, 24 hours): >128 µg/mL; MIC (μg/ml) at 24 hours, P. aeruginosa ([3]; P. aeruginosa): >128 µg/mL; MIC (μg/ml) at 24 hours, MRSA 1 ([4]; MRSA 1, 24 hours): >128 µg/mL; MIC (μg/ml) at 24 hours, MRSA 2 ([4]; MRSA 2, 24 hours): >128 µg/mL |
| >128 | >128 | >128 | >128 | >128 | >128 |  |  |  |  |  |  | Cl.N=C(N/N=C/c1ccc(Cl)cc1)N/N=C/c1ccc(C(F)(F)F)cc1 [NCL077] |  |
| >128 | 64 | >128 | >128 | 64 | 128 |  |  |  |  |  |  | Cl.N=C(N/N=C/c1ccc2ccccc2c1)N/N=C/c1ccc2ccccc2c1 [NCL093] | activity against VRE among analogues [2]: greatest activity; activity against MRSA among analogues [4]: greatest activity |
|  |  |  |  |  |  |  |  |  |  |  |  | Nc1nc(N/N=C/c2cccc(O)c2)nc(N/N=C/c2cccc(O)c2)n1 [NCL209] | MIC (μg/ml) at 24 hours, E. coli ([1]; E. coli): >128 µg/mL; MIC (μg/ml) at 24 hours, VRE 1 ([2]; VRE 1, 24 hours): >128 µg/mL; MIC (μg/ml) at 24 hours, VRE 2 ([2]; VRE 2, 24 hours): >128 µg/mL; MIC (μg/ml) at 24 hours, P. aeruginosa ([3]; P. aeruginosa): >128 µg/mL; MIC (μg/ml) at 24 hours, MRSA 1 ([4]; MRSA 1, 24 hours): >128 µg/mL; MIC (μg/ml) at 24 hours, MRSA 2 ([4]; MRSA 2, 24 hours): >128 µg/mL |
| >128 | >128 | >128 | >128 | >128 | >128 |  |  |  |  |  |  | Cl.N=C(N/N=C/c1ccc(Cl)cc1Cl)N/N=C/c1ccc(Cl)cc1Cl [NCL 127] |  |
